Assay results reported in article PMC5522996, “Big conductance calcium‐activated potassium channel openers control spasticity without sedation” (British Journal of Pharmacology, 2017).

Columns and labels:
GPR55 = biological target: T1, GPR55 (Homo sapiens, UniProt Q9Y2T6); test: Receptor binding profile of VSN16R
T1 construct: purchased Cerep; Chantest; DiscoveRx; Multispan; MDS Pharma Services

EDG6 = biological target: T2, EDG6 (Homo sapiens, UniProt O95977); test: Receptor binding profile of VSN16R; details: 10µM VSN16R
T2 construct: purchased Cerep; Chantest; DiscoveRx; Multispan; MDS Pharma Services
T2 sequence (O95977 whole entry): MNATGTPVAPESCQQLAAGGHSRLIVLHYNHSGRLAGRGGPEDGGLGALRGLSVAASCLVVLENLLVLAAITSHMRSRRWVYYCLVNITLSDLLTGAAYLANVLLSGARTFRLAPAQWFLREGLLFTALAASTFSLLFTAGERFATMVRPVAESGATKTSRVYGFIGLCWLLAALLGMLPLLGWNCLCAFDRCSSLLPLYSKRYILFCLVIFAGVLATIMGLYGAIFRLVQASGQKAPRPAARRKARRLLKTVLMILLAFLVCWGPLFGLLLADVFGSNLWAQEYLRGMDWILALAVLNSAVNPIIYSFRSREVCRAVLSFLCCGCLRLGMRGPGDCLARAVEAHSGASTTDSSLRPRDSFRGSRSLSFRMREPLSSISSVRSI

CB2 = biological target: T3, CB2 (Homo sapiens, UniProt P34972); test: Receptor binding profile of VSN16R
T3 construct: purchased Cerep; Chantest; DiscoveRx; Multispan; MDS Pharma Services
T3 sequence (P34972 whole entry): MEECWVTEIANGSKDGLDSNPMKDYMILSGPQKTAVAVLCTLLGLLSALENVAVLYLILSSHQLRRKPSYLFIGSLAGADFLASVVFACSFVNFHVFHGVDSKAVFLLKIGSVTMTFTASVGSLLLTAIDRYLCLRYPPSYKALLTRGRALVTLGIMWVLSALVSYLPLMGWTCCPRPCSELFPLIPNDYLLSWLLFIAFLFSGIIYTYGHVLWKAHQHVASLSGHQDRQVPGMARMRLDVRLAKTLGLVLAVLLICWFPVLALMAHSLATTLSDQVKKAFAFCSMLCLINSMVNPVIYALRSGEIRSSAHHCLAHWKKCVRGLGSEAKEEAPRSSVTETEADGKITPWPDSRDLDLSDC

GPR23 = biological target: T4, GPR23 (Homo sapiens, UniProt Q99677); test: Receptor binding profile of VSN16R; details: 10µM VSN16R
T4 construct: purchased Cerep; Chantest; DiscoveRx; Multispan; MDS Pharma Services
T4 sequence (Q99677 whole entry): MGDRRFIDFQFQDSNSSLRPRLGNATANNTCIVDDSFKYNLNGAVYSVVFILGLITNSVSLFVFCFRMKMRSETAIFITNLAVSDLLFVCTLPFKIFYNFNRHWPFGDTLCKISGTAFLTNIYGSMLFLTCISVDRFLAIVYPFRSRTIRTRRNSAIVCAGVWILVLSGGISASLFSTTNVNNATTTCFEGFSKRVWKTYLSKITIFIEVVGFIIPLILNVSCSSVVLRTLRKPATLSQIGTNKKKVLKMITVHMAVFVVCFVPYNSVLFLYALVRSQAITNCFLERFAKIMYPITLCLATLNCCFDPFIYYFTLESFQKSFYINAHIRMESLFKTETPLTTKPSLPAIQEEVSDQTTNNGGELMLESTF

Y1 = biological target: T5, Y1 (Homo sapiens, UniProt P25929); test: Receptor binding profile of VSN16R; details: 10µM VSN16R
T5 construct: purchased Cerep; Chantest; DiscoveRx; Multispan; MDS Pharma Services
T5 sequence (P25929 whole entry): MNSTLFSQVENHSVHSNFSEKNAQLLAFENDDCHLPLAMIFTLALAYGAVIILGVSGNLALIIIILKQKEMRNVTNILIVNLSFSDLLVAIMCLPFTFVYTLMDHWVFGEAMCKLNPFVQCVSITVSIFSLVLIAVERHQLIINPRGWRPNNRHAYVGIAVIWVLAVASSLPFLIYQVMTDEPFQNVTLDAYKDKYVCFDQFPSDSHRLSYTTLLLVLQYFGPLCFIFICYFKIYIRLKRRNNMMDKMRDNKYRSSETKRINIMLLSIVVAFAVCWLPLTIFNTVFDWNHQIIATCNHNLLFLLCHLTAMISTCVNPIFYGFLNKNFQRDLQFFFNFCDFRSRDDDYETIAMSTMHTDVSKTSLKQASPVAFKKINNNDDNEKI

[1] = biological target: CYP450 1A2 (Homo sapiens)
Chain of CYP450 1A2 (Homo sapiens) (P11511 whole entry): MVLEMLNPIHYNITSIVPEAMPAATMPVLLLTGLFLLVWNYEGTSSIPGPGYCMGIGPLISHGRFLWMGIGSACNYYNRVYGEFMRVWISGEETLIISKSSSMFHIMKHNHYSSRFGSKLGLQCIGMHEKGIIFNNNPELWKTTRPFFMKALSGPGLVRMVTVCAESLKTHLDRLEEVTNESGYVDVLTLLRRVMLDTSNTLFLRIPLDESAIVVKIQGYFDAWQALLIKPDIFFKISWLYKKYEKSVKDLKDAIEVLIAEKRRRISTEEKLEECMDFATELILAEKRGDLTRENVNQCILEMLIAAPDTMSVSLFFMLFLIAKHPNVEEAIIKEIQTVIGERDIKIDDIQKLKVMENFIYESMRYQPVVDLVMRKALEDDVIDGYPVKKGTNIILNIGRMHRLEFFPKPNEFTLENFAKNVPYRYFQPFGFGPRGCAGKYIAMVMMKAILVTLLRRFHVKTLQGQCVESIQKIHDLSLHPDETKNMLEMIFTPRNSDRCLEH
Source text: (§1) Inhibition of binding of either 3-cyano-7-ethoxycoumarin, dibenzylfluorescein or 7-benzyoxy-4-
(§2) (trifluoromethyl) coumarin in human enzyme transfected BTI NN-5B1-4 cells or Sf9 insect cells or
(§3) inhibition of dextromethorphan substrate to CYP450 2D6 in liver microsomes.

BKCa channel = biological target: T6, BKCa channel (Homo sapiens, UniProt Q12791+Q86W47); test: Single‐channel inside‐out patch clamp, EA.hy926 cells; assay type: cell-based; details: 3 μM, inner surface of membrane, 40 mV, 0.3 μM free Ca^2+
T6 construct: host or cells: EA.hy926 endothelial cells
T6 sequence (Q12791 whole entry): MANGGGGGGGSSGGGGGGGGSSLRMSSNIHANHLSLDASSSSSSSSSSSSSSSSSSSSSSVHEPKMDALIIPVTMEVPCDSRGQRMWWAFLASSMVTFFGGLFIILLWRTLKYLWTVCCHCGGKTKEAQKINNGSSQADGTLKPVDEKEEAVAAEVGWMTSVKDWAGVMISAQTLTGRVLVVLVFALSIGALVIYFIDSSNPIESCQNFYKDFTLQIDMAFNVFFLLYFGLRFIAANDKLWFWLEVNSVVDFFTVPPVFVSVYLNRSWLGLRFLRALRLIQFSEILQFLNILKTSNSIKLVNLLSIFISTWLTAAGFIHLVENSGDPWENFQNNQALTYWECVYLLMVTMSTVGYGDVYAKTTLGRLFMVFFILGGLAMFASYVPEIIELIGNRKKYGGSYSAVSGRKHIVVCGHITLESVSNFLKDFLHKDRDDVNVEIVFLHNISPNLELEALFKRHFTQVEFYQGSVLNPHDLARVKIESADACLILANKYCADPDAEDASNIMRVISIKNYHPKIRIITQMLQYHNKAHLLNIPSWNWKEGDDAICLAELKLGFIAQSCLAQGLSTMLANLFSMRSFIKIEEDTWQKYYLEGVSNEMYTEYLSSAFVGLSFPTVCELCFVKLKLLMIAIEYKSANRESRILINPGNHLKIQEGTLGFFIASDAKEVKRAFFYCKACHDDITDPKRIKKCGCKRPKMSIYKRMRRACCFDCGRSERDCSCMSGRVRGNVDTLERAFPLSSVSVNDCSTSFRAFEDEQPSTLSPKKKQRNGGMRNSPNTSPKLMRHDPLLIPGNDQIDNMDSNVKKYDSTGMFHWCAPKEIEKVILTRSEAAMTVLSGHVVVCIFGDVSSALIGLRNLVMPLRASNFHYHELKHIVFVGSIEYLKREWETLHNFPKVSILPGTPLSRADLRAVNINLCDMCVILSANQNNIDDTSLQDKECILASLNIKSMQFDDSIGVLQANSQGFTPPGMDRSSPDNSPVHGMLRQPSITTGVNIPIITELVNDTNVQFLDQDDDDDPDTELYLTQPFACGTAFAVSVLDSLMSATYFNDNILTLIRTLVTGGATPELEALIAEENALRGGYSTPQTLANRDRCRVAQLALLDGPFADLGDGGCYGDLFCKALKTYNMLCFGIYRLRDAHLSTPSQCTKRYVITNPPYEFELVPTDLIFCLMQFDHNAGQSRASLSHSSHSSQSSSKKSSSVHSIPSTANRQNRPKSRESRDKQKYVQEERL
T6 sequence (Q86W47 whole entry): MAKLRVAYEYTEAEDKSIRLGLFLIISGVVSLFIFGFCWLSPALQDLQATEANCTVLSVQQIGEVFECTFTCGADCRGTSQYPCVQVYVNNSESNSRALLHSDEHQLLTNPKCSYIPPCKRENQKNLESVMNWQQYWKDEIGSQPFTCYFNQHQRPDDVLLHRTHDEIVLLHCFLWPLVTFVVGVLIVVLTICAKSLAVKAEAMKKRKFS
Protocol: The human EA.hy926 endothelial cells (ATCC, Manassas, USA) were grown in DMEM containing 10% FCS and 1% HAT (5 mM hypoxanthine, 20 μM aminopterin and 0.8 mM thymidine) and were maintained in an incubator at 37°C in 5% CO2 atmosphere (Bondarenko et al., 2013). Human HNC‐2 neuronal cells were obtained from ATCC. For experiments, cells were plated on glass coverslips. Single‐channel recordings were obtained from excised inside‐out membrane patches in symmetrical solutions using the patch‐clamp technique. All patch‐clamp experiments were performed at room temperature with the use of a water hydraulic micromanipulator (WR‐6, Narishige, Japan). […] The pipettes were filled with 140 mM KCl, 10 mM HEPES, 1 mM MgCl2, 5 mM EGTA and […] CaCl2 buffered to pH 7.2 by adding KOH. Cells were super‐perfused with a bath solution containing 140 mM NaCl, 5 mM KCl, 1.2 mM MgCl2, 10 mM HEPES, 10 mM glucose and 2.4 mM CaCl2. Following gigaseal formation, bath solution was switched to the following: 140 mM KCl, 10 mM HEPES, 1 mM MgCl2, 5 mM EGTA and a designated free Ca^2+ concentration, which was adjusted by adding different amounts of CaCl2 buffered to pH 7.2. (Bondarenko et al., 2011; Bondarenko et al., 2013). Single‐channel activity was expressed as NPo, where N represents the number of functional ion channels in the membrane patch and Po represents the open channel probability determined from idealized traces (Bondarenko et al., 2011). NPo was obtained from ≥20 s of continuous recording under each experimental condition. The effect of VSN16R was estimated after 3 min of continuous exposure to VSN16R‐containing solution. Data were analysed by ANOVA, and statistical significance was evaluated using Scheffés post hoc test of the Prism 5 software for Windows (GraphPad Software).

[2] = Phase I pharmacokinetics in healthy humans; assay type: in vivo, human
Protocol: The stability of compounds when subjected to hepatic and plasma degradation was assessed in vitro by Inpharmatica, Cambridge, UK. Compounds (1 μM) were incubated with either pooled mouse liver microsomes (0.1 mg protein mL^−1) or pooled mouse plasma at 37°C for 0, 5, 10, 20 and 40 min before termination with acetonitrile containing warfarin as an analytical internal standard. Samples were centrifuged, and the resultant supernatant analysed for parent compound. The mass responses at baseline were taken as the 100% reference values against which the disappearance of the compound was measured. The natural log of the % remaining values was used to generate linear plots of disappearance of the compounds. Half‐life values were calculated from the slope of these plots. Hepatocyte metabolism was assessed by Cyprotex, Macclesfield, and 10 μM VSN16R was incubated with primary mouse, rat, monkey (Macaque) and human hepatocytes for 1 h, and the presence of metabolites was assessed using liquid […] mass spectroscopy. The stability of VSN16R was assessed in vivo by Inpharmatica, Cyprotex and Charles Rivers, Cambridge. Blood (plasma) samples were obtained prior to and 5 min to 24 h after drug administration of 2–5 mg·kg^−1 i.v. or 5 mg·kg^−1 p.o. VSN16R into outbred mice and rats (n = 3 per time point). In addition, plasma, brain and spinal cord samples were obtained from ABH with spastic EAE. Immediately after blood collection, the brain and spinal cord were removed and then stored at −20°C prior to assay. Tissue samples were weighed, homogenized and centrifuged, and the lysates generated. Brain lysates and plasma were assayed by LC–MS methods by Inpharmatica/Charles Rivers, Cambridge, UK. This was also performed using a Waters Xevo TQ or API4000, AB Sciex mass spectrometer using spiked samples as standards. PK Solutions Software (Summit Research Services, Montrose, CO, USA), AB Sciex Analyst software combined with Thermo Fisher Scientific Watson LIMS processing and reporting software or WinNonLin pharmacokinetic or PK solutions 2.0 software (Summit Research Services, Montrose CO, USA) were used to produce PK parameters. Data are expressed as mean ± SEM. The detection limit of VSN16R was 2 ng·mL^−1 in plasma and brain and 14 ng·mL^−1 in spinal cords.

CYP450 2C8 = biological target: T7, CYP450 2C8 (Homo sapiens, UniProt P10632); test: CYP450 inhibition of substrate binding; assay type: in vitro ADME; details: read-out: IC50 Inhibition of substrate binding, VSN16R
T7 construct: host or cells: BTI NN-5B1-4 or Sf9 insect cells
T7 sequence (P10632 whole entry): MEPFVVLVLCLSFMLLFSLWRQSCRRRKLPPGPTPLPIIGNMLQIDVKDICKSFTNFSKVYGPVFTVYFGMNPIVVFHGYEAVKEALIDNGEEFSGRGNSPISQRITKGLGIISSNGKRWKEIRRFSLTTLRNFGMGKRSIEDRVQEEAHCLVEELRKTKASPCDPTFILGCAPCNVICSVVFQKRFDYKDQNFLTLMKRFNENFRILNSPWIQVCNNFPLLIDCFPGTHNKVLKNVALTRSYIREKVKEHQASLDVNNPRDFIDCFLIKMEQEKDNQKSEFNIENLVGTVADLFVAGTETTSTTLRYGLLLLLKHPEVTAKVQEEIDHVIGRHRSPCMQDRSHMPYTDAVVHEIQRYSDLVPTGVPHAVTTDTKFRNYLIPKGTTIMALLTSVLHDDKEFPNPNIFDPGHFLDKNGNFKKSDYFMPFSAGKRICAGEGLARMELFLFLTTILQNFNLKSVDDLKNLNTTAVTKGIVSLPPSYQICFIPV
Source text: as §1, §2, §3

T1 sequence (Q9Y2T6 whole entry): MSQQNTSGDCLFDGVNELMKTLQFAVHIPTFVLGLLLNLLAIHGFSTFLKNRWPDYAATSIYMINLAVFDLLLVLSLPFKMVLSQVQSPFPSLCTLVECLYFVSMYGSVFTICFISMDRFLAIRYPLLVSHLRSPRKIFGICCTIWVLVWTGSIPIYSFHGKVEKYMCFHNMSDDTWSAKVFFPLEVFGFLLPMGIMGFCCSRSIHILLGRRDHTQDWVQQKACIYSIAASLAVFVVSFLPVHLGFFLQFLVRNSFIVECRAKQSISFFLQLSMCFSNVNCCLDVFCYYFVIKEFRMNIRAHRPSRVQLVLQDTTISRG

C[C@H](CO)NC(=O)c1cccc(/C=C\CCCC(=O)N(C)C)c1 [VSN16R]
Activity (GPR55; 10µM VSN16R): Negligible Activity | Binding to GPR55 (GPR55; Multispan C1113, H113, HEK293T.GPR55 and mouse DBT.Gpr55 cell lines): does not directly bind | Activity (EDG6): Negligible Activity | Activity (CB2; 10µM VSN16R): Negligible Activity | Binding to CB2 receptors (CB2; tested to 10 μM): did not bind | Activity (GPR23): Negligible Activity | Activity (Y1): Negligible Activity | IC50 [1]: > 10 µM | Single BKCa channel activity (BKCa channel): facilitated single BKCa channel activity | Effect of feeding on pharmacokinetics ([2]; 200 mg p.o., fed within 0.5 h of dosing): delayed the time of the Cmax (Tmax) and reduced Cmax | concentration at 1 week ([2]; male, human, plasma, oral, twice daily dosing of VSN16R, read-out: Steady‐state plasma levels): > 100 nM | bioavailability ([2]; male, human, plasma, po, 25 mg p.o.): 100% | Terminal elimination ([2]; over the dose range studied, 25–800 mg): 3.4 to 4.9 h | IC50 (CYP450 2C8): > 10 µM
